The target in assay [1] is T1, human glucocorticoid receptor (GR) complex (Homo sapiens, UniProt P04150).
T1 construct: made in house; host or cells: insect cells (baculovirus expression), used as crude lysate
T1 sequence (P04150 1-777): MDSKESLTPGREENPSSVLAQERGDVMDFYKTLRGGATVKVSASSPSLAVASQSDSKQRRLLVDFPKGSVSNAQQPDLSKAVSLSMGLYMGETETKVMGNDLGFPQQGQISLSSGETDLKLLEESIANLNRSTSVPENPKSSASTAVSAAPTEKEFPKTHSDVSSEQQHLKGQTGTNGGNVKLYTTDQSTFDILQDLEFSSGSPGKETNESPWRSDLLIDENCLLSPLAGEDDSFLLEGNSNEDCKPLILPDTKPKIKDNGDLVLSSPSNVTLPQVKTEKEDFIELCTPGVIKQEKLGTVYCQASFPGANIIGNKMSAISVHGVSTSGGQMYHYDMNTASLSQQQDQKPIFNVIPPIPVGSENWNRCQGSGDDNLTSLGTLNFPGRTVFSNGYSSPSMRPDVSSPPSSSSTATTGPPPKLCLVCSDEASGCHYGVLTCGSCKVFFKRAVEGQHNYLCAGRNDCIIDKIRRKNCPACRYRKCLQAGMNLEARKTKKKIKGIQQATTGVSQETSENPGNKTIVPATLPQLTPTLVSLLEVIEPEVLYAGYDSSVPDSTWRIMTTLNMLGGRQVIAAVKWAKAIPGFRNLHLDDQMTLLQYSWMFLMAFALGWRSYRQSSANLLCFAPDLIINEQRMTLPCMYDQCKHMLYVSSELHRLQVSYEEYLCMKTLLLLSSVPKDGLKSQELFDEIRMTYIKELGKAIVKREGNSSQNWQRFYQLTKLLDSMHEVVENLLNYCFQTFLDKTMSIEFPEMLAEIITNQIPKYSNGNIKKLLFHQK
The assay is described as follows: Glucocorticoid receptor competitive binding assay (fluorescence polarization). Particulars: competition with TAMRA-labeled dexamethasone; result in words only. How it is done:
Compounds of the invention were evaluated for binding to the steroid receptor by a fluorescence polarization competitive binding assay. Detailed descriptions for preparation of recombinant glucocorticoid receptor (GR) complex used in the assay is described in U.S. Patent Application Publication No. US 2003/0017503, filed May 20, 2002, and incorporated herein by reference in its entirety. Preparation of the tetramethyl rhodamine (TAMRA)-labeled dexamethasone probe was accomplished using a standard literature procedure (M. Pons et al., J. Steroid Biochem., 1985, 22, pp. 267-273).
A. Glucocorticoid Receptor Competitive Binding Assay
The affinity of the probe for the steroid receptor was then determined in a titration experiment. The fluorescence polarization value of the probe in assay buffer was measured on an SLM-8100 fluorometer using the excitation and emission maximum values described above. Aliquots of expression vector lysate were added and fluorescence polarization was measured after each addition until no further change in polarization value was observed. Non-linear least squares regression analysis was used to calculate the dissociation constant of the probe from the polarization values obtained for lysate binding to the probe.
(§1) This assay uses fluorescence polarization (FP) to quantitate the ability of test compounds to compete with tetramethyl rhodamine (TAMRA)-labeled dexamethasone for binding to a human glucocorticoid receptor (GR) complex prepared from an insect expression system. The assay buffer was: 10 mM TES, 50 mM KCl, 20 mM Na2MoO4.2H2O, 1.5 mM EDTA, 0.04% w/v CHAPS, 10% v/v glycerol, 1 mM dithiothreitol, pH 7.4. Test compounds were dissolved to 1 mM in neat DMSO and then further diluted to 10× assay concentration in assay buffer supplemented with 10% v/v DMSO. Test compounds were serially diluted at 10× assay concentrations in 10% DMSO-containing buffer in 96-well polypropylene plates. Binding reaction mixtures were prepared in 96-well black Dynex microtiter plates by sequential addition of the following assay components to each well: 15 μL of 10× test compound solution, 85 μL of GR-containing baculovirus lysate diluted 1:170 in assay buffer, and 50 μL of 15 nM TAMRA-labeled dexamethasone. Positive controls were reaction mixtures containing no test compound; negative controls (blanks) were reaction mixtures containing 0.7 μM to 2 μM dexamethasone. The binding reactions were incubated for 1 hour at room temperature and then read for fluorescence polarization in the LJL Analyst set to 550 nm excitation and 580 nm emission, with the Rhodamine 561 dichroic mirror installed. IC50 values were determined by iterative non-linear curve fitting of the FP signal data to a 4-parameter logistic equation.
A general note: Polarisation of emitted light reports the rotation of a fluorescent probe.

For a further assay, the system named is glucocorticoid receptor. The assay is described as follows: Glucocorticoid receptor function, one or more of the above assays (not specified which). In kind it is cell-based. Particulars: in one or more of the above assays; result in words only. How it is done: as §1, with “Positive controls were reaction mixtures containing no test compound; negative controls (blanks) were reaction mixtures containing 0.7 μM to 2 μM dexamethasone.” left out
Dexamethasone, a synthetic ligand to the glucocorticoid receptor (GR), induces expression of aromatase in human foreskin fibroblast cells. The activity of aromatase is measured by the conversion of testosterone to estradiol in culture media.
Human foreskin fibroblast cells (ATCC Cat. No. CRL-2429, designation CCD112SK) are plated on 96 well plates at 50,000 cells per well 5 days before use, in Iscove's Modified Dulbecco's Media (GibcoBRL Life Technologies Cat No. 12440-053) supplemented with 10% charcoal filtered FBS (Clonetech Cat No. SH30068) and Gentamycin (GibcoBRL Life Technologies Cat. No. 15710-064). […] The extent of aromatase induction by test compounds is expressed as a relative percentage to dexamethasone. […]

The structures appear in SMILES notation.

For `CC1(CC(O)(Cc2ccnc3ccccc23)C(F)(F)F)CCc2ccccc21` (stereo not drawn) [1,1,1-Trifluoro-3-(1-methylindan-1-yl)-2-quinolin-4-ylmethylpropan-2-ol], the “activity in the GR binding assay” value in assay [1] is on record as “potent activity”. `CC1(CC(O)(Cc2cc3ccccc3[nH]2)C(F)(F)F)CCOc2ccc(F)cc21` (stereo not drawn) [1,1,1-Trifluoro-3-(6-fluoro-4-methylchroman-4-yl)-2-(1H-indol-2-ylmethyl)propan-2-ol]: the “activity as an agonist of the glucocorticoid receptor function” value in the assay with glucocorticoid receptor is given as “activity as an agonist”. In assay [1], the “activity in the GR binding assay” value is “potent activity”. As for `CC1(CC(O)(Cc2ccnc3ccccc23)C(F)(F)F)CCOc2ccc(F)cc21` (stereo not drawn) [1,1,1-Trifluoro-3-(6-fluoro-4-methylchroman-4-yl)-2-quinolin-4-ylmethylpropan-2-ol], the “activity as an agonist of the glucocorticoid receptor function” value in the assay with glucocorticoid receptor is given as “activity as an agonist”. Regarding `OC(Cc1ccnc2ccccc12)(CC1CCOc2ccc(F)cc21)C(F)(F)F` (stereo not drawn) [1,1,1-Trifluoro-3-(6-fluorochroman-4-yl)-2-quinolin-4-ylmethylpropan-2-ol], the “activity in the GR binding assay” value in assay [1] was “potent activity”. Consider `CC1(CC(O)(Cc2ccc(C#N)cc2Cl)C(F)(F)F)CCOc2ccc(F)cc21` (stereo not drawn) [3-Chloro-4-[3,3,3-trifluoro-2-(6-fluoro-4-methylchroman-4-ylmethyl)-2-hydroxypropyl]benzonitrile], for which, in assay [1], the “activity in the GR binding assay” value is given as “potent activity”.

For the compound `Cc1cc(C#N)cc2[nH]c(CC(O)(CC3(C)CCOc4ccc(F)cc43)C(F)(F)F)cc12` (stereo not drawn) [4-Methyl-2-[3,3,3-trifluoro-2-(6-fluoro-4-methylchroman-4-ylmethyl)-2-hydroxypropyl]-1H-indole-6-carbonitrile], the “activity as an agonist of the glucocorticoid receptor function” value in the assay on glucocorticoid receptor is given as “activity as an agonist”. In assay [1], the “activity in the GR binding assay” value was “potent activity”. `Cc1cc(C#N)cc2[nH]c(CC(O)(CC3(C)CCOc4ccc(S(C)(=O)=O)cc43)C(F)(F)F)cc12` (stereo not drawn) [4-Methyl-2-[3,3,3-trifluoro-2-hydroxy-2-(6-methanesulfonyl-4-methylchroman-4-ylmethyl)propyl]-1H-indole-6-carbonitrile]: the “activity in the GR binding assay” value in assay [1] was “potent activity”.
